Legend:
[1] = system: cytokine mRNA expression in macrophages; assay: Effects of VentX knockdown on cytokine mRNA expression in macrophages (real-time PCR); type: cell-based, human; design: unit not given here; conditions: macrophages transfected with siRNA; classical activation by LPS plus IFN-γ
Protocol: Macrophages were generated through incubation of freshly isolated monocytes with 100 ng/mL M-CSF for 4 days. These macrophages were then transfected with siGFP or siVentX, respectively, and further cultured in RPMI 1640 medium for additional 3 days. Thereafter, cells were exposed to 1 μg/mL LPS plus 20 ng/mL γ-IFN for 6 hours. (A) Surface staining of CD40, CD80, CD86 and HLA-DR and intracellular staining of TNF-α and IL1-β were analyzed by flow cytometry. (B) Secreted TNF-α, IL1-β and IL12p70 from culture supernatants were determined with ELISA kits. (C) Reactive oxygen species (ROS) from siGFP or siVentX transfected macrophages were analyzed with fluorescence microscope (left) and flow cytometry (middle). […] (D) Nitrate level from siGFP and siVentX transfected macrophages. Data represent mean+SD of three different experiments. (E) Phagocytosis of siGFP and siVentX transfected macrophage. Red histogram represents transfection with siGFP; green histogram represents transfection with siVentX. Left panel: cells were incubated on ice; right panel: cells were incubated at 37° C. (F) Effects of VentX knockdown on mixed lymphocyte reaction. Irradiated macrophages that had been transfected with siGFP or siVentX were utilized to stimulate allogenic naïve CD4 T cells proliferation. The proliferation rates were represented by counts per minute (CPM). […] Statistically significant difference (p<0.05) was observed when 4×10^2 or 2×10^3 cells were added.
(Martinez, et al. 2008 Front Biosci 13:453-461; Mosser, et al. 2008 Nat Rev Immunol 8:958-969.) To investigate whether VentX is required for classical activation of macrophages, a loss-of-function approach by knockdown of VentX was used.
Human primary monocytes were transfected using the Human Monocyte Nucleofector Kit (Lonza) according to the manufacturer's instructions. Briefly, 5×10^6monocytes were resuspended into 100 μl nucleofector solution with 0.5 nmol of either VentX siRNA (forward: 5′-[…]-3′ (SEQ ID NO:4); reverse: 5′-[…]-3′ (SEQ ID NO:5)) or non-effective GFP siRNA (forward: 5′-[…]-3′ (SEQ ID NO:6); 5′-reverse: […]-3′ (SEQ ID NO:7)) before electroporation with nucleofector II Device (Lonza). Cells were then immediately removed from the device and incubated overnight with 1 ml pre-warmed Human Monocyte Nucleofector Medium containing 2 mM glutamine and 10% FBS. Cells were then resuspended into complete RPMI medium and treated with appropriate cytokines to induce differentiation into macrophages. Similarly, macrophages derived from monocytes were transfected with Human Macrophage Nucleofector Kit (Lonza) following the manufacturer's instructions.
Total RNA was isolated by the TRIzol reagent, and an equal amount of RNA was used for first-strand cDNA synthesis with SuperScript III First-Strand Synthesis System (Invitrogen) according to the manufacturer's protocol. To amplify VentX cDNA with conventional PCR, AccuPrime™ Taq DNA polymerase system (Invitrogen) was used following the manufacturer's instructions. PCR products were separated on 2% agarose gels and stained with ethidium bromide. GAPDH was used as an internal control. Quantitative measurement of VentX and cytokines cDNA were performed with SYBR Green on a LightCycler® (480 Real-Time PCR System; Roche). The primers used are listed in the Sequence Listing (SEQ ID NOs: 24-109).

[2] = system: allogenic naive CD4+ T cells; assay: Mixed lymphocyte reaction; type: cell-based, human; conditions: irradiated transfected macrophages (FIG. 8F)
Protocol: Macrophages were generated through incubation of freshly isolated monocytes with 100 ng/mL M-CSF for 4 days. These macrophages were then transfected with siGFP or siVentX, respectively, and further cultured in RPMI 1640 medium for additional 3 days. Thereafter, cells were exposed to 1 μg/mL LPS plus 20 ng/mL γ-IFN for 6 hours. (A) Surface staining of CD40, CD80, CD86 and HLA-DR and intracellular staining of TNF-α and IL1-β were analyzed by flow cytometry. (B) Secreted TNF-α, IL1-β and IL12p70 from culture supernatants were determined with ELISA kits. (C) Reactive oxygen species (ROS) from siGFP or siVentX transfected macrophages were analyzed with fluorescence microscope (left) and flow cytometry (middle). […] (D) Nitrate level from siGFP and siVentX transfected macrophages. Data represent mean+SD of three different experiments. (E) Phagocytosis of siGFP and siVentX transfected macrophage. Red histogram represents transfection with siGFP; green histogram represents transfection with siVentX. Left panel: cells were incubated on ice; right panel: cells were incubated at 37° C. (F) Effects of VentX knockdown on mixed lymphocyte reaction. Irradiated macrophages that had been transfected with siGFP or siVentX were utilized to stimulate allogenic naïve CD4 T cells proliferation. The proliferation rates were represented by counts per minute (CPM). […]

In the case of “siVentX: VentX siRNA, forward 5′-UUCAGAAUCGCCGCAUGAAACACAAACGG-3′ (SEQ ID NO:4), reverse SEQ ID NO:5 (antisense CCGUUUGUGUUUCAUGCGGCGAUUCUGAA; listed as RNA, chemistry not given here)”, the “IL1-β cytokine mRNA expression” value [1] is reported as 21.93 ± 1.8, the “IL6 cytokine mRNA expression” value [1] is reported as 1.78 ± 0.14 and the “IL8 cytokine mRNA expression” value [1] is reported as 172 ± 5.8. For the same substance, the “IL12p35 cytokine mRNA expression” value [1] was 0.37 ± 0.14, the “IL12p40 cytokine mRNA expression” value [1] was 0.61 ± 0.05 and the “M-SCSF cytokine mRNA expression” value [1] was 0.14 ± 0.01. For the same substance, the “TNF-α cytokine mRNA expression” value [1] was 0.18 ± 0.01 and the “stimulation of allogeneic T cells proliferation” value [2] was “less potent”.
